Reference: publication PMC11847541, “Liver fatty acid binding protein FABP1 transfers substrates to cytochrome P450 4A11 for catalysis” (The Journal of Biological Chemistry, 2025)

Biological target: T1, P450 4A11 (Homo sapiens, UniProt Q02928)
T1 sequence (Q02928 5-519): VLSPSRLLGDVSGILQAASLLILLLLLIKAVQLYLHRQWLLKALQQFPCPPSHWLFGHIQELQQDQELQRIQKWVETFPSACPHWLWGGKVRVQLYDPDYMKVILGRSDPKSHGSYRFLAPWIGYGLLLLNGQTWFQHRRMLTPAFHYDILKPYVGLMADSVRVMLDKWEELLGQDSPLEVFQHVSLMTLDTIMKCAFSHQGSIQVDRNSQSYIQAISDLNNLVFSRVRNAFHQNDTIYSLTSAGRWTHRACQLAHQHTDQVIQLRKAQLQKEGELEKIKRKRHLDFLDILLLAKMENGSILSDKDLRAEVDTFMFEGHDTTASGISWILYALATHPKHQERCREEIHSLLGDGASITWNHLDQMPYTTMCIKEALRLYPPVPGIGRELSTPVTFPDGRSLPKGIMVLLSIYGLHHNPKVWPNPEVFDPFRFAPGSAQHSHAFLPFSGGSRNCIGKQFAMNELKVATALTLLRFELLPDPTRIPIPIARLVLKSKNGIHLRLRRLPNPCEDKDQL
Test: Ketoconazole trap experiment for lipid koff from P450 4A11
Assay type: binding
Design: made in house; host or cells: E. coli
Method: To assess the rates of lipid egress from P450 4A11 (k-1, k-3), lipids were tested in conjunction with the general P450 inhibitor ketoconazole in a “trap experiment” as we have recently described to estimate koff rates for P450–sterol complexes ([27], [28]). P450–lipid complexes were rapidly mixed with ketoconazole, and the spectral shift from 390 nm (substrate bound, type I) to 418 nm (inhibitor bound, type II) P450 was monitored over time (Fig. 9A, progression from blue to red curve). This spectral shift arises from the direct interaction of the azole nitrogen lone pair with the heme iron (forming a hexacoordinated heme species). This experiment is performed with an excess of ketoconazole (100 μM) to facilitate rapid capture of unliganded P450 yielded at the moment of lipid dissociation, such that ketoconazole kon approximates the lipid koff.
(The concentration of lipid added during preincubation reflects the affinity of the complex determined in equilibrium binding titrations; Fig. 8). The first phase of each trace relates to the ketoconazole capture of the unliganded enzyme (the majority–but not all–P450 was substrate bound at equilibrium), and the second phase correlates to the capture of enzyme yielded by the egress of the bound lipid (i.e., estimate of koff). […] The rates extracted for the second phase (koff) were 0.070 ± 0.006 s^−1 (k-3) and 0.20 ± 0.01 s^−1 (k-1), respectively.
Determination of P450 4A11 koff rates with lipids was performed using a ketoconazole “trap” experiment by adapting previously published protocols ([27], [28]). Solutions of (A) ketoconazole (200 μM) and (B) P450 4A11 (4 μM) and either palmitate (20 μM) or 16-OH palmitate (8 μM) were prepared (2 ml each, all in 100 mM potassium phosphate buffer [pH 7.4]) and loaded into the drive syringes of an OLIS stopped-flow spectrophotometer with the same procedure described for the P450 4A11 kon determination (aforementioned). The experiment was initiated by mixing equal volumes of each solution together, and the rate of ketoconazole binding to P450 is given by ΔA418-A390 (displacement of lipid [decrease in A390] because of ketoconazole binding [increase in A418]) and is a maximum value for the rate at which the P450–lipid complex dissociated (koff) (Fig. S14).
Figure S14. Absorbance traces used to determine P450 4A11 palmitate koff rate. The basis of the ketoconazole trap experiment is the spectral transition from substrate-bound (“Type I” shift, A390 (blue trace)) to inhibitor-bound (“Type II” shift, A418 (red trace)) P450 (Fig. 9A). The formation of ketoconazole-bound P450 (inhibitor complex) from palmitate-bound P450 (substrate complex) is over the course of the experiment shown above. The rate of formation of inhibitor-bound P450 is subtracted from the rate of decay of substrate-bound P450, and the resulting plot (Fig. 9D) is fit to a biexponential equation to estimate the dissociation rate (koff) of palmitate from the P450 4A11.

[1] = P450 4A11 2 μM preincubated with lipid, ketoconazole 100 μM

Q: What does the source list for `CCCCCCCCCCCCCCCC(=O)O` [Palmitate (C16), palmitate]?
A: first phase rate (k1), ketoconazole capture of unliganded enzyme [1]: 2.9 ± 0.1 s⁻¹; koff (P450 4A11 2 μM preincubated with lipid, ketoconazole 100 μM, read-out: second phase rate = koff from P450 4A11): 0.2 ± 0.01 s⁻¹; Kd (quotient of experimentally determined rates, read-out: Kd estimate for P450 4A11 as koff/kon): 4.8 µM

Q: How did the “first phase rate (k1), ketoconazole capture of unliganded enzyme” value [1] turn out when `O=C(O)CCCCCCCCCCCCCCCO` [16-OH Palmitate (C16), 16-hydroxypalmitate] was run?
A: 1.3 ± 0.4 s⁻¹

Q: And the “second phase rate = koff from P450 4A11” value [1]?
A: 0.070 ± 0.006 (k-3) s^−1

Q: And the “kon to P450 4A11 (k3)” value (calculated from koff and Kd)?
A: 2.6 × 10^5 (k3) M^−1 s^−1
